Assay results as given in paper PMC5218480 (PLoS ONE, 2017).

Tested on: MV-4-11 cells
Experiment: Gene expression microarray analysis (Affymetrix PrimeView) and GSEA
Assay type: cell-based, human
Set-up: RFU PODN (11730768_x_at) / Fold change /veh PODN (11730768_x_at) / RFU LINC00158 (11744669_a_at) / Fold change /veh LINC00158 (11744669_a_at) / RFU DUSP10 (11751237_a_at) / Fold change /veh DUSP10 (11751237_a_at) / RFU ID3 (11757404_x_at) / Fold change /veh ID3 (11757404_x_at) / RFU PLEKHG5 (11737974_s_at) / Fold change /veh PLEKHG5 (11737974_s_at) / RFU LRRC4B (11730491_at) / Fold change /veh LRRC4B (11730491_at) / RFU GIMAP4 (11747438_a_at) / Fold change /veh GIMAP4 (11747438_a_at) / RFU KRT8 (11758183_x_at) / Fold change /veh KRT8 (11758183_x_at) / RFU CNN1 (11734310_a_at) / Fold change /veh CNN1 (11734310_a_at) / RFU VPS37D (11726825_at) / Fold change /veh VPS37D (11726825_at) / RFU C10orf10 (11716522_x_at) / Fold change /veh C10orf10 (11716522_x_at) / RFU KIR2DL2 /// KIR2DL4 /// KIR2DL5A /// KIR2DL5B /// KIR2DS1 /// KIR2DS2 /// KIR2DS3 /// KIR2DS4 /// KIR3DL3 /// KIR3DL3 /// KIR3DS1 (11738374_at) / Fold change /veh KIR2DL2 /// KIR2DL4 /// KIR2DL5A /// KIR2DL5B /// KIR2DS1 /// KIR2DS2 /// KIR2DS3 /// KIR2DS4 /// KIR3DL3 /// KIR3DL3 /// KIR3DS1 (11738374_at) / RFU C1QL1 (11718748_at) / Fold change /veh C1QL1 (11718748_at) / RFU TMPRSS4 (11747572_a_at) / Fold change /veh TMPRSS4 (11747572_a_at) / RFU HAMP (11756126_x_at) / Fold change /veh HAMP (11756126_x_at) / RFU RNFT2 (11725882_a_at) / Fold change /veh RNFT2 (11725882_a_at) / RFU NR4A2 (11747474_a_at) / Fold change /veh NR4A2 (11747474_a_at) / RFU ABCC12 (11746883_a_at) / Fold change /veh ABCC12 (11746883_a_at) / RFU TMEM136 (11760407_x_at) / Fold change /veh TMEM136 (11760407_x_at) / RFU CLDN22 /// WWC2 (11732394_at) / Fold change /veh CLDN22 /// WWC2 (11732394_at) / RFU HLA-DPB1 (11760878_x_at) / Fold change /veh HLA-DPB1 (11760878_x_at) / RFU SPINT1 (11716480_a_at) / Fold change /veh SPINT1 (11716480_a_at) / RFU GAP43 (11754022_s_at) / Fold change /veh GAP43 (11754022_s_at) / RFU A4GNT (11735810_at) / Fold change /veh A4GNT (11735810_at) / RFU PRB3 (11715151_x_at) / Fold change /veh PRB3 (11715151_x_at) / RFU TUBB4B (11761932_at) / Fold change /veh TUBB4B (11761932_at) / RFU CAPN14 (11732068_a_at) / Fold change /veh CAPN14 (11732068_a_at) / RFU TMCC2 (11721928_a_at) / Fold change /veh TMCC2 (11721928_a_at) / RFU IRGQ (11745062_a_at) / Fold change /veh IRGQ (11745062_a_at) / RFU FAM174B (11720279_a_at) / Fold change /veh FAM174B (11720279_a_at) / RFU TMPRSS4 (11748680_a_at) / Fold change /veh TMPRSS4 (11748680_a_at) / RFU FAM212B (11763350_a_at) / Fold change /veh FAM212B (11763350_a_at) / RFU PLEKHG5 (11743358_a_at) / Fold change /veh PLEKHG5 (11743358_a_at) / RFU ZSCAN30 (11745921_a_at) / Fold change /veh ZSCAN30 (11745921_a_at) / RFU CMKLR1 (11741424_a_at) / Fold change /veh CMKLR1 (11741424_a_at) / RFU LOC101060620 /// MAPK8IP1 (11723275_at) / Fold change /veh LOC101060620 /// MAPK8IP1 (11723275_at) / RFU SPTSSB (11747773_x_at) / Fold change /veh SPTSSB (11747773_x_at) / RFU PRSS12 (11739890_at) / Fold change /veh PRSS12 (11739890_at) / RFU BIN1 (11741810_x_at) / Fold change /veh BIN1 (11741810_x_at) / RFU WNT11 (11732464_a_at) / Fold change /veh WNT11 (11732464_a_at) / RFU C10orf10 (11716521_a_at) / Fold change /veh C10orf10 (11716521_a_at) / RFU C5orf56 (11738089_at) / Fold change /veh C5orf56 (11738089_at) / RFU CYB561 (11721691_x_at) / Fold change /veh CYB561 (11721691_x_at) / RFU ANKRD19P (11752326_a_at) / Fold change /veh ANKRD19P (11752326_a_at) / RFU OR2T12 /// OR2T33 /// OR2T8 (11738714_s_at) / Fold change /veh OR2T12 /// OR2T33 /// OR2T8 (11738714_s_at) / RFU VCAN (11748164_a_at) / Fold change /veh VCAN (11748164_a_at) / RFU JSRP1 (11732532_at) / Fold change /veh JSRP1 (11732532_at) / RFU KRTAP10-11 (11738290_x_at) / Fold change /veh KRTAP10-11 (11738290_x_at) / RFU MYO3A (11730013_a_at) / Fold change /veh MYO3A (11730013_a_at) / RFU EBF3 (11725865_a_at) / Fold change /veh EBF3 (11725865_a_at) / RFU CAMK2N1 (11719241_x_at) / Fold change /veh CAMK2N1 (11719241_x_at) / RFU C5orf56 (11738088_a_at) / Fold change /veh C5orf56 (11738088_a_at) / RFU OLFML3 (11715873_a_at) / Fold change /veh OLFML3 (11715873_a_at) / RFU LOC100653217 /// NTM (11731650_a_at) / Fold change /veh LOC100653217 /// NTM (11731650_a_at) / RFU MAPK11 (11762145_a_at) / Fold change /veh MAPK11 (11762145_a_at) / RFU FIZ1 (11724087_x_at) / Fold change /veh FIZ1 (11724087_x_at) / RFU OASL (11726364_x_at) / Fold change /veh OASL (11726364_x_at) / RFU SOX15 (11748057_x_at) / Fold change /veh SOX15 (11748057_x_at) / RFU CD79A (11719716_a_at) / Fold change /veh CD79A (11719716_a_at) / RFU HIST1H1D (11736915_at) / Fold change /veh HIST1H1D (11736915_at) / RFU CASKIN2 (11723855_a_at) / Fold change /veh CASKIN2 (11723855_a_at) / RFU LOC730098 (11760151_x_at) / Fold change /veh LOC730098 (11760151_x_at) / RFU OR4N2 (11742367_at) / Fold change /veh OR4N2 (11742367_at) / RFU PRRT2 (11749266_a_at) / Fold change /veh PRRT2 (11749266_a_at) / RFU SNX32 (11753110_a_at) / Fold change /veh SNX32 (11753110_a_at) / RFU CDHR5 (11726645_a_at) / Fold change /veh CDHR5 (11726645_a_at) / RFU RCAN1 (11760418_a_at) / Fold change /veh RCAN1 (11760418_a_at) / RFU FAM167A (11723789_a_at) / Fold change /veh FAM167A (11723789_a_at) / RFU FAM26E (11764081_at) / Fold change /veh FAM26E (11764081_at) / RFU ISYNA1 (11749810_s_at) / Fold change /veh ISYNA1 (11749810_s_at) / RFU ACY1 (11761880_at) / Fold change /veh ACY1 (11761880_at) / RFU 11764098_at / Fold change /veh 11764098_at / RFU SAMD14 (11745864_x_at) / Fold change /veh SAMD14 (11745864_x_at) / RFU NPB (11741838_a_at) / Fold change /veh NPB (11741838_a_at) / RFU TMPRSS6 (11731388_a_at) / Fold change /veh TMPRSS6 (11731388_a_at) / RFU KRTAP10-2 (11738614_at) / Fold change /veh KRTAP10-2 (11738614_at) / RFU ARHGAP8 /// PRR5-ARHGAP8 (11727945_x_at) / Fold change /veh ARHGAP8 /// PRR5-ARHGAP8 (11727945_x_at) / RFU KRTAP5-7 /// NADSYN1 (11734609_at) / Fold change /veh KRTAP5-7 /// NADSYN1 (11734609_at) / RFU RASL12 (11751679_a_at) / Fold change /veh RASL12 (11751679_a_at) / RFU CDKN2B (11736163_a_at) / Fold change /veh CDKN2B (11736163_a_at) / RFU PRF1 (11729649_at) / Fold change /veh PRF1 (11729649_at) / RFU, ZNF638 /// ZNF638-IT1 / Fold change vs veh, ZNF638 /// ZNF638-IT1 / RFU, PANK3 / Fold change vs veh, PANK3 / RFU, SH3YL1 / Fold change vs veh, SH3YL1 / RFU, ZEB2 / Fold change vs veh, ZEB2 / RFU, NRIP1 / Fold change vs veh, NRIP1 / RFU, PTTG1IP / Fold change vs veh, PTTG1IP / RFU, CAPN2 / Fold change vs veh, CAPN2 / RFU, MED14 / Fold change vs veh, MED14 / RFU, SNORA58 / Fold change vs veh, SNORA58 / RFU, C1orf63 / Fold change vs veh, C1orf63 / RFU, LRRFIP1 / Fold change vs veh, LRRFIP1 / RFU, NDUFAF7 / Fold change vs veh, NDUFAF7 / RFU, SLC12A2 / Fold change vs veh, SLC12A2 / RFU, IBTK / Fold change vs veh, IBTK / RFU, ESF1 / Fold change vs veh, ESF1 / Fold change vs veh, TMEM50B / RFU, TAOK1 / Fold change vs veh, TAOK1 / RFU, ACBD3 / Fold change vs veh, ACBD3 / RFU, TMA16 / Fold change vs veh, TMA16 / RFU, RWDD3 / Fold change vs veh, RWDD3 / RFU, BCAT1 / Fold change vs veh, BCAT1 / RFU, EDEM3 / Fold change vs veh, EDEM3 / RFU, TMEM33 / Fold change vs veh, TMEM33 / RFU, WDR75 / Fold change vs veh, WDR75 / RFU, AHCTF1 / Fold change vs veh, AHCTF1 / RFU, TFRC / Fold change vs veh, TFRC / RFU, ZDHHC17 / Fold change vs veh, ZDHHC17 / RFU, NOM1 / Fold change vs veh, NOM1 / RFU, ARL8B / Fold change vs veh, ARL8B / RFU, ZBTB11 / Fold change vs veh, ZBTB11 / RFU, TAMM41 / Fold change vs veh, TAMM41 / RFU, KIAA1704 /// LOC100996395 / Fold change vs veh, KIAA1704 /// LOC100996395 / RFU, ING1 / Fold change vs veh, ING1 / RFU, TRMT61B / Fold change vs veh, TRMT61B / RFU, FUBP3 / Fold change vs veh, FUBP3 / RFU, TP53 / Fold change vs veh, TP53 / RFU, TNKS2 / Fold change vs veh, TNKS2 / RFU, ZFP14 / Fold change vs veh, ZFP14 / RFU, ACTR2 / Fold change vs veh, ACTR2 / RFU, PPP3R1 / Fold change vs veh, PPP3R1 / RFU, PIK3R1 / Fold change vs veh, PIK3R1 / RFU, HNRNPA1 / Fold change vs veh, HNRNPA1 / RFU, RNF170 / Fold change vs veh, RNF170 / RFU, ZNF28 / Fold change vs veh, ZNF28 / RFU, RNGTT / Fold change vs veh, RNGTT / RFU, OGT / Fold change vs veh, OGT / RFU, BRD1 / Fold change vs veh, BRD1 / RFU, MARS / Fold change vs veh, MARS / RFU, ZNF655 / Fold change vs veh, ZNF655 / RFU, FAHD1 / Fold change vs veh, FAHD1 / RFU, BDP1 / Fold change vs veh, BDP1 / RFU, LRRCC1 / Fold change vs veh, LRRCC1 / RFU, ARID1A / Fold change vs veh, ARID1A / RFU, ZNF146 / Fold change vs veh, ZNF146 / RFU, ZNF330 / Fold change vs veh, ZNF330 / RFU, GPN3 / Fold change vs veh, GPN3 / RFU, C9orf123 / Fold change vs veh, C9orf123 / RFU, N4BP2L2 / Fold change vs veh, N4BP2L2 / RFU, ARFIP1 / Fold change vs veh, ARFIP1 / RFU, FAM179B / Fold change vs veh, FAM179B / RFU, BCL10 / Fold change vs veh, BCL10 / RFU, UHRF1BP1L / Fold change vs veh, UHRF1BP1L / RFU, BET1 / Fold change vs veh, BET1 / RFU, CNOT2 / Fold change vs veh, CNOT2 / RFU, ZNF268 / Fold change vs veh, ZNF268 / Fold change vs veh, ZNF507 / RFU, DGCR2 / Fold change vs veh, DGCR2 / RFU, WDSUB1 / Fold change vs veh, WDSUB1 / Fold change vs veh, HSP90B1 /// MIR3652 / RFU, ADSS / Fold change vs veh, ADSS / RFU, GK / Fold change vs veh, GK / RFU, ZNF148 / Fold change vs veh, ZNF148 / RFU, TAF9 / Fold change vs veh, TAF9 / RFU, SLC1A5 / Fold change vs veh, SLC1A5 / RFU, SLMO2 / Fold change vs veh, SLMO2 / RFU, ABCC4 / Fold change vs veh, ABCC4 / RFU, LOC101060439 /// RAP1B / Fold change vs veh, LOC101060439 /// RAP1B / RFU, RFX7 / Fold change vs veh, RFX7 / RFU, GTPBP10 / Fold change vs veh, GTPBP10 / RFU, CNEP1R1 / Fold change vs veh, CNEP1R1 / RFU, BIVM-ERCC5 /// ERCC5 / Fold change vs veh, BIVM-ERCC5 /// ERCC5 / RFU, ILF3 / Fold change vs veh, ILF3 / RFU 11762660_at / Fold change /veh 11762660_at / RFU VCAN (11757783_s_at) / Fold change /veh VCAN (11757783_s_at) / RFU DDX43 (11728927_at) / Fold change /veh DDX43 (11728927_at) / RFU KRT8 (11758188_x_at) / Fold change /veh KRT8 (11758188_x_at) / RFU NKD1 (11759106_at) / Fold change /veh NKD1 (11759106_at) / RFU SRD5A1 (11742802_a_at) / Fold change /veh SRD5A1 (11742802_a_at) / RFU TPSAB1 /// TPSB2 (11721975_s_at) / Fold change /veh TPSAB1 /// TPSB2 (11721975_s_at) / RFU GSTM3 (11746129_a_at) / Fold change /veh GSTM3 (11746129_a_at) / RFU IL23R (11737362_x_at) / Fold change /veh IL23R (11737362_x_at) / RFU TMEM51 (11727254_a_at) / Fold change /veh TMEM51 (11727254_a_at) / RFU PIWIL2 (11732686_x_at) / Fold change /veh PIWIL2 (11732686_x_at) / RFU ORM1 (11744905_x_at) / Fold change /veh ORM1 (11744905_x_at) / RFU CCDC152 (11743942_at) / Fold change /veh CCDC152 (11743942_at) / RFU ECM1 (11717891_a_at) / Fold change /veh ECM1 (11717891_a_at) / RFU IL23R (11748794_a_at) / Fold change /veh IL23R (11748794_a_at) / RFU TNFAIP8L3 (11732012_x_at) / Fold change /veh TNFAIP8L3 (11732012_x_at) / RFU MBOAT4 (11741988_at) / Fold change /veh MBOAT4 (11741988_at) / RFU 11764193_at / Fold change /veh 11764193_at / RFU TMEM53 (11763286_at) / Fold change /veh TMEM53 (11763286_at) / RFU MAGEB2 (11727129_at) / Fold change /veh MAGEB2 (11727129_at) / RFU TMEM200A (11744735_a_at) / Fold change /veh TMEM200A (11744735_a_at) / RFU CCDC152 (11751479_a_at) / Fold change /veh CCDC152 (11751479_a_at) / RFU FAM211A (11726209_a_at) / Fold change /veh FAM211A (11726209_a_at) / RFU RGS16 (11746705_a_at) / Fold change /veh RGS16 (11746705_a_at) / RFU VCAN (11755009_s_at) / Fold change /veh VCAN (11755009_s_at) / RFU RHOB (11743442_s_at) / Fold change /veh RHOB (11743442_s_at) / RFU RGS16 (11720943_a_at) / Fold change /veh RGS16 (11720943_a_at) / RFU RGS16 (11720944_at) / Fold change /veh RGS16 (11720944_at) / RFU, VPS4B / Fold change vs veh, VPS4B / RFU, CREB1 / Fold change vs veh, CREB1 / RFU, DNAJC13 / Fold change vs veh, DNAJC13 / RFU, GNAQ / Fold change vs veh, GNAQ / RFU, CDK5R1 / Fold change vs veh, CDK5R1 / RFU, ZRANB3 / Fold change vs veh, ZRANB3 / RFU, CUL4A / Fold change vs veh, CUL4A / RFU, CCNY / Fold change vs veh, CCNY / RFU, UFL1 / Fold change vs veh, UFL1 / RFU, COG3 / Fold change vs veh, COG3 / RFU, DIAPH2 / Fold change vs veh, DIAPH2 / RFU, SKA2 / Fold change vs veh, SKA2 / RFU, AFF3 / Fold change vs veh, AFF3 / RFU, LMF1 / Fold change vs veh, LMF1 / RFU, IPO11 / Fold change vs veh, IPO11 / RFU, DFFB / Fold change vs veh, DFFB / RFU, FOXP1 / Fold change vs veh, FOXP1 / RFU, CARD8 / Fold change vs veh, CARD8 / RFU, STRN3 / Fold change vs veh, STRN3 / RFU, ADK / Fold change vs veh, ADK / RFU, RASSF2 / Fold change vs veh, RASSF2 / RFU, WIPF1 / Fold change vs veh, WIPF1 / RFU, LARP1B / Fold change vs veh, LARP1B / RFU, RASA1 / Fold change vs veh, RASA1 / RFU, RB1 / Fold change vs veh, RB1 / RFU, PPFIA1 / Fold change vs veh, PPFIA1 / RFU, MAT2A / Fold change vs veh, MAT2A / RFU, CCT5 / Fold change vs veh, CCT5 / RFU, WDR92 / Fold change vs veh, WDR92 / RFU, CUX1 / Fold change vs veh, CUX1 / RFU, TTC7A / Fold change vs veh, TTC7A / RFU, TMEM135 / Fold change vs veh, TMEM135 / RFU, DEPTOR / Fold change vs veh, DEPTOR / RFU, CPM / Fold change vs veh, CPM / RFU, DNAJB6 / Fold change vs veh, DNAJB6 / RFU, CACNA2D3 / Fold change vs veh, CACNA2D3 / RFU, DTX4 / Fold change vs veh, DTX4 / RFU, TFCP2 / Fold change vs veh, TFCP2 / RFU, GMCL1 /// GMCL1P1 / Fold change vs veh, GMCL1 /// GMCL1P1 / RFU, AEBP2 / Fold change vs veh, AEBP2 / RFU, SNHG1 /// SNORD22 /// SNORD25 /// SNORD26 /// SNORD27 /// SNORD28 /// SNORD29 /// SNORD31 / Fold change vs veh, SNHG1 /// SNORD22 /// SNORD25 /// SNORD26 /// SNORD27 /// SNORD28 /// SNORD29 /// SNORD31 / Fold change (Aza/veh), C12orf56 (ProbeSet 11735607_a_at) / Fold change (ACY-1035/veh), C12orf56 (ProbeSet 11735607_a_at) / Fold change (Aza/veh), FGFR1OP (ProbeSet 11751329_s_at) / Fold change (ACY-1035/veh), FGFR1OP (ProbeSet 11751329_s_at) / Fold change (Aza/veh), VPS36 (ProbeSet 11739960_a_at) / Fold change (ACY-1035/veh), VPS36 (ProbeSet 11739960_a_at) / RFU SYPL1 (11715823_x_at) / Fold change /veh SYPL1 (11715823_x_at) / RFU IGFBP7 (11715501_s_at) / Fold change /veh IGFBP7 (11715501_s_at) / RFU REEP3 (11722064_at) / Fold change /veh REEP3 (11722064_at) / RFU IGLL1 (11728026_x_at) / Fold change /veh IGLL1 (11728026_x_at): dose or concentration left out as unconfirmed
Conditions: ProbeSet 11720566_at; LIST D

In the case of Nc1ccc(-c2cccs2)cc1NC(=O)c1ccc2c(c1)cc(C1CC1)n2CCN1CCOCC1 [ACY-1035], the “RFU, BCAT1” value is reported as 827.78 RFU.
